Measured values published in PubChem BioAssay (NCI).
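Cultured in 96-well plates, cells were exposed to test compound for 48 hours across five concentrations. TGI denotes the concentration required for complete inhibition of growth.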 Peptide text beside a SMILES is read from it. * marks the point of attachment. X34 = O=C(c1ccc(-c2ccc(Cl)cc2Cl)o1)*

Columns and labels:
Test in all cases: NCI-60 cell line screen, 48 h
[1] = system: PC-3 prostate
[2] = system: HCT-15 colon
[3] = system: SNB-75 CNS
[4] = system: OVCAR-4 ovarian
[5] = system: NCI-H460 lung
[6] = system: HS 578T breast
[7] = system: MOLT-4 leukemia
[8] = system: RXF 393 renal
[9] = system: HCT-116 colon
[10] = system: NCI-H23 lung
[11] = system: COLO 205 colon
[12] = system: SK-MEL-5 melanoma
[13] = system: MDA-N
[14] = system: SF-295 CNS
[15] = system: M14 melanoma
[16] = system: SF-268 CNS
[17] = system: U251 CNS
[18] = system: DU-145 prostate
[19] = system: MCF7 breast
[20] = system: K-562 leukemia
[21] = system: T-47D breast
[22] = system: NCI/ADR-RES ovarian
[23] = system: BT-549 breast
[24] = system: TK-10 renal
[25] = system: KM12 colon
[26] = system: HT29 colon
[27] = system: UO-31 renal
[28] = system: SW-620 colon
[29] = system: SNB-19 CNS
[30] = system: CAKI-1 renal
[31] = system: SK-MEL-28 melanoma
[32] = system: UACC-62 melanoma
[33] = system: ACHN renal
[34] = system: 786-0 renal
[35] = system: OVCAR-8 ovarian
[36] = system: SK-OV-3 ovarian
[37] = system: MALME-3M melanoma
[38] = system: SN12C renal
[39] = system: NCI-H522 lung
[40] = system: MDA-MB-231 breast
[41] = system: OVCAR-5 ovarian
[42] = system: HL-60(TB) leukemia
[43] = system: RPMI-8226 leukemia
[44] = system: CCRF-CEM leukemia
[45] = system: HCC-2998 colon
[46] = system: MDA-MB-435
[47] = system: HOP-92 NSCLC
[48] = system: LOX IMVI melanoma
[49] = system: A498 renal
[50] = system: A549 NSCLC
[51] = system: SF-539 CNS
[52] = system: SK-MEL-2 melanoma
[53] = system: UACC-257 melanoma
[54] = system: NCI-H226 lung
[55] = system: IGROV1 ovarian
[56] = system: EKVX NSCLC
[57] = system: OVCAR-3 ovarian
[58] = system: HOP-62 NSCLC
[59] = system: SR leukemia

COC(=O)C(CC(C)C)NC(=O)C(Cc1ccccc1)NC(=O)C1CCCN1C(=O)C(CO)NC(=O)c1ccc(-c2ccc(Cl)cc2Cl)o1 (centres undefined) (X34-SPFL-OMe; configuration not given here)
TGI [1]: > 100 µM
TGI [2]: 72.6 µM
TGI [3]: 88.8 µM
TGI [4]: > 100 µM
TGI [5]: 38.9 µM
TGI [6]: > 100 µM
TGI [7]: 80 µM
TGI [8]: 44.7 µM
TGI [9]: 92.1 µM
TGI [10]: 97.6 µM
TGI [11]: 30.8 µM
TGI [12]: 35.2 µM
TGI [13]: > 100 µM
TGI [14]: 46.5 µM
TGI [15]: 49 µM
TGI [16]: > 100 µM
TGI [17]: 55.9 µM
TGI [18]: > 100 µM
TGI [19]: > 100 µM
TGI [20]: 89.2 µM
TGI [21]: > 100 µM
TGI [22]: 92.8 µM
TGI [23]: 75.7 µM
TGI [24]: 67.5 µM
TGI [25]: > 100 µM
TGI [26]: 40.7 µM
TGI [27]: 65.2 µM
TGI [28]: > 100 µM
TGI [29]: > 100 µM
TGI [30]: > 100 µM
TGI [31]: > 100 µM
TGI [32]: > 100 µM
TGI [33]: > 100 µM
TGI [34]: 56.9 µM
TGI [35]: > 100 µM
TGI [36]: 25.7 µM
TGI [37]: > 100 µM
TGI [38]: 89.9 µM
TGI [39]: > 100 µM
TGI [40]: 32.3 µM
TGI [41]: 50.4 µM
TGI [42]: 69.6 µM
TGI [43]: 44.2 µM
TGI [44]: > 100 µM
TGI [45]: 27.4 µM
TGI [46]: 90.3 µM
TGI [47]: 63.9 µM
TGI [48]: 47.9 µM
TGI [49]: 76.5 µM
TGI [50]: 91.2 µM
TGI [51]: 60.4 µM
TGI [52]: 33.7 µM
TGI [53]: 57.8 µM
TGI [54]: 44.9 µM

CCOP(=O)(Nc1ccc(-c2ccc(N)cc2)cc1)OCC
TGI [55]: > 100 µM
TGI [1]: > 100 µM
TGI [2]: > 100 µM
TGI [3]: > 100 µM
TGI [4]: > 100 µM
TGI [5]: > 100 µM
TGI [6]: > 100 µM
TGI [7]: > 100 µM
TGI [8]: 98.8 µM
TGI [9]: > 100 µM
TGI [10]: > 100 µM
TGI [11]: > 100 µM
TGI [12]: > 100 µM
TGI [13]: > 100 µM
TGI [56]: > 100 µM
TGI [14]: > 100 µM
TGI [15]: > 100 µM
TGI [16]: > 100 µM
TGI [17]: > 100 µM
TGI [18]: > 100 µM
TGI [19]: > 100 µM
TGI [20]: > 100 µM
TGI [22]: > 100 µM
TGI [23]: > 100 µM
TGI [24]: > 100 µM
TGI [25]: > 100 µM
TGI [26]: > 100 µM
TGI [27]: > 100 µM
TGI [57]: > 100 µM
TGI [29]: > 100 µM
TGI [30]: > 100 µM
TGI [31]: > 100 µM
TGI [32]: > 100 µM
TGI [33]: > 100 µM
TGI [34]: > 100 µM
TGI [58]: > 100 µM
TGI [35]: > 100 µM
TGI [36]: > 100 µM
TGI [37]: > 100 µM
TGI [39]: > 100 µM
TGI [40]: > 100 µM
TGI [41]: > 100 µM
TGI [43]: > 100 µM
TGI [45]: > 100 µM
TGI [46]: > 100 µM
TGI [47]: > 100 µM
TGI [49]: > 100 µM
TGI [50]: > 100 µM
TGI [52]: > 100 µM
TGI [53]: > 100 µM

NNc1nc2ccccc2o1
TGI [55]: > 100 µM
TGI [1]: > 100 µM
TGI [2]: > 100 µM
TGI [3]: > 100 µM
TGI [4]: > 100 µM
TGI [5]: > 100 µM
TGI [6]: > 100 µM
TGI [7]: > 100 µM
TGI [8]: > 100 µM
TGI [9]: > 100 µM
TGI [10]: > 100 µM
TGI [11]: > 100 µM
TGI [12]: > 100 µM
TGI [13]: > 100 µM
TGI [56]: > 100 µM
TGI [15]: > 100 µM
TGI [16]: > 100 µM
TGI [17]: > 100 µM
TGI [18]: > 100 µM
TGI [19]: > 100 µM
TGI [20]: > 100 µM
TGI [59]: > 100 µM
TGI [21]: > 100 µM
TGI [22]: > 100 µM
TGI [23]: > 100 µM
TGI [24]: > 100 µM
TGI [25]: > 100 µM
TGI [26]: > 100 µM
TGI [27]: > 100 µM
TGI [28]: > 100 µM
TGI [29]: > 100 µM
TGI [30]: > 100 µM
TGI [31]: > 100 µM
TGI [32]: > 100 µM
TGI [33]: > 100 µM
TGI [34]: > 100 µM
TGI [35]: > 100 µM
TGI [37]: > 100 µM
TGI [38]: > 100 µM
TGI [39]: > 100 µM
TGI [40]: > 100 µM
TGI [41]: > 100 µM
TGI [42]: > 100 µM
TGI [43]: > 100 µM
TGI [44]: > 100 µM
TGI [45]: > 100 µM
TGI [46]: > 100 µM
TGI [47]: > 100 µM
TGI [48]: > 100 µM
TGI [49]: > 100 µM
TGI [50]: > 100 µM
TGI [51]: > 100 µM
TGI [52]: > 100 µM
TGI [53]: > 100 µM
TGI [54]: > 100 µM

O=C1NC(=NCc2ccc(F)cc2)N/C1=C\c1ccccc1Cl
TGI [55]: > 100 µM
TGI [1]: 38.8 µM
TGI [2]: 71.2 µM
TGI [3]: 26.6 µM
TGI [4]: 74.3 µM
TGI [5]: > 100 µM
TGI [6]: > 100 µM
TGI [7]: > 100 µM
TGI [8]: 48.2 µM
TGI [9]: 30.3 µM
TGI [11]: 37.5 µM
TGI [12]: 33.6 µM
TGI [13]: 40.3 µM
TGI [56]: 58.2 µM
TGI [14]: 35.8 µM
TGI [15]: 31.6 µM
TGI [16]: 59.9 µM
TGI [17]: 30.4 µM
TGI [18]: 46.8 µM
TGI [19]: 54.8 µM
TGI [20]: > 100 µM
TGI [59]: > 100 µM
TGI [21]: 29.4 µM
TGI [22]: 86.1 µM
TGI [23]: 56.8 µM
TGI [24]: 67.4 µM
TGI [25]: 53.9 µM
TGI [26]: 29.5 µM
TGI [57]: 32.6 µM
TGI [28]: 31.1 µM
TGI [29]: 39.7 µM
TGI [30]: 70.8 µM
TGI [31]: 67.3 µM
TGI [32]: 29.8 µM
TGI [33]: 49.1 µM
TGI [34]: 24 µM
TGI [58]: 35.3 µM
TGI [35]: 29.3 µM
TGI [36]: 63.2 µM
TGI [37]: 41.8 µM
TGI [38]: 29.6 µM
TGI [39]: 30.4 µM
TGI [40]: 41.8 µM
TGI [41]: 41 µM
TGI [42]: 36.5 µM
TGI [45]: > 100 µM
TGI [46]: 43.9 µM
TGI [47]: 24.9 µM
TGI [48]: 28.6 µM
TGI [49]: 34 µM
TGI [50]: 41.8 µM
TGI [51]: > 100 µM
TGI [52]: 33.3 µM
TGI [53]: > 100 µM
TGI [54]: 69.3 µM
